Experiments:
[1] = test system: IPOHE (Ipomoea hederacea); assay: Postemergence herbicidal evaluation; assay type: in vivo, (L.) Jacq.; details: postemergence
Outline: (§1)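 Seedlings grown about two weeks in flats, sprayed, then kept under standard greenhouse care. Rated visually 4–5 weeks after treatment on a 0–9 scale (stand, vigour, malformation, size, chlorosis, overall appearance) relative to untreated control; repeat tests averaged.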

GLXMA (Soybean) [2] = assay: Postemergence herbicidal evaluation; assay type: in vivo, Glycine max, (L.) Merr.; details: postemergence
Method: In the tests, seedling plants are grown in jiffy flats for about two weeks. The test compounds are dispersed in 50/50 acetone/water mixtures containing 0.5% TWEEN® 20, a polyoxyethylene sorbitan monolaurate surfactant of Atlas Chemical Industries, in sufficient quantities to provide the equivalent of about 0.0040 kg to 1.000 kg per hectare of active compound when applied to the plants through a spray nozzle operating at 40 psi for a predetermined time. After spraying, the plants are placed on greenhouse benches and are cared for in accordance with conventional greenhouse procedures. From four to five weeks after treatment, the seedling plants are examined and rated according to the rating system set forth below. Where more than one test is involved for a given compound, the data are averaged.
Results of herbicide evaluation are expressed on a rating scale (0-9). The scale is based upon a visual observation of plant stand, vigor, malformation, size, chlorosis and overall plant appearance as compared with a control.

ZEAMX (Corn, Field) [3] = assay: Postemergence herbicidal evaluation; assay type: in vivo, Zea mays, L.; details: postemergence
Outline: as §1

SETVI (Setaria viridis) = assay: Postemergence herbicidal evaluation; assay type: in vivo, (L.) Beau; details: postemergence
Outline: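 Seedlings about two weeks old were sprayed with compound in 50/50 acetone/water plus 0.5% TWEEN 20, at the equivalent of about 0.0040 to 1.000 kg/ha. Plants were kept in a greenhouse and visually rated 0-9 against a control four to five weeks after treatment. Repeat tests were averaged.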

[4] = test system: ECHCG (Echinochloa crus-galli); assay: Postemergence herbicidal evaluation; assay type: in vivo, (L.) Beau; details: postemergence
Outline: as §1

[5] = test system: CHEAL (Chenopodium album); assay: Postemergence herbicidal evaluation; assay type: in vivo, L.; details: postemergence
Outline: as §1

[6] = test system: AMBEL (Ambrosia artemisifolia); assay: Postemergence herbicidal evaluation; assay type: in vivo, L.; details: postemergence
Outline: as §1

[7] = test system: ABUTH (Abutilon theophrasti); assay: Postemergence herbicidal evaluation; assay type: in vivo, Medic.; details: postemergence
Outline: as §1

ORYSAT (Rice, Tebonnet) [8] = assay: Flooded paddy, post-transplant rice tolerance; assay type: in vivo, Oryza sativa, (L.) Tebonnet; details: in vivo
Outline: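 Seedlings aged ten days are transplanted in pairs into undrained pots of silt loam, which are then flooded to a depth of 1.5 to 3 cm. After herbicide application the pots are kept in a greenhouse with the flood maintained. Plants are rated 0-9 by visual comparison with controls.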

[9] = test system: IPOHE (Ipomoea hederacea); assay: Preemergence herbicidal evaluation; assay type: in vivo, (L.) Jacq.; details: preemergence, rated 4-5 weeks after treatment
[10] = test system: AMBEL (Ambrosia artemisifolia); assay: Preemergence herbicidal evaluation; assay type: in vivo, L.; details: preemergence, rated 4-5 weeks after treatment
Outline: (§2)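 Applied before emergence as an aqueous acetone spray over seeded soil. Read-out: 0–9 visual rating covering plant stand, vigor, size, chlorosis, malformation and overall appearance compared with control, taken 4–5 weeks after spraying.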

GALAP (Galium aparine) [11] = assay: Postemergence herbicidal evaluation; assay type: in vivo; details: postemergence
Outline: as §1

[12] = test system: ABUTH (Abutilon theophrasti); assay: Preemergence herbicidal evaluation; assay type: in vivo, Medic.; details: preemergence, rated 4-5 weeks after treatment
GALAP (Galium aparine) [13] = assay: Preemergence herbicidal evaluation; assay type: in vivo; details: preemergence, rated 4-5 weeks after treatment
Outline: as §2

[14] = test system: ECHORC (Echinochloa oryzoides); assay: Flooded paddy, preemergence weed control; assay type: in vivo, Echinochloa oryzoides (Ard.) Fritsch.; details: rated 3-4 weeks after treatment, 0-9 rating scale
Outline: (§3)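 Preemergence, flooded: propagules planted at 0.5 cm depth in silt loam, water level maintained at 1.5 to 3 cm over soil, containers kept on greenhouse benches. Activity scored 0-9 by eye relative to a control plant.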

[15] = test system: ECHCG (Echinochloa crus-galli); assay: Preemergence herbicidal evaluation; assay type: in vivo, (L.) Beau; details: preemergence, rated 4-5 weeks after treatment
Outline: as §2

ZEAMX (Corn, Field) [16] = assay: Preemergence herbicidal evaluation; assay type: in vivo, Zea mays, L.; details: preemergence, rated 4-5 weeks after treatment
[17] = test system: MOOVA (Monochoria vaginalis); assay: Flooded paddy, preemergence weed control; assay type: in vivo, Presl.; details: rated 3-4 weeks after treatment, 0-9 rating scale
Outline: as §3

GLXMA (Soybean) [18] = assay: Preemergence herbicidal evaluation; assay type: in vivo, Glycine max, (L.) Merr.; details: preemergence, rated 4-5 weeks after treatment
[19] = test system: TRZAWR (Wheat, Winter, cv Riband); assay: Postemergence herbicidal evaluation; assay type: in vivo, Triticum aestivum; details: postemergence
Outline: as §1

CYPIR (Cyperus iria) = assay: Flooded paddy, preemergence weed control; assay type: in vivo; details: rated 3-4 weeks after treatment, 0-9 rating scale
Outline: as §3

[20] = test system: CASOB (Cassia obtusifolia); assay: Postemergence herbicidal evaluation; assay type: in vivo, L.; details: postemergence
Outline: as §1

ORYSAT (Rice, Tebonnet) [21] = assay: Postemergence herbicidal evaluation; assay type: in vivo, Oryza sativa, (L.) Tebonnet; details: postemergence
Outline: as §1

[22] = test system: GLXMAW (Soybean, Williams); assay: Postemergence herbicidal evaluation; assay type: in vivo, Glycine max, (L.) Merr. cv Williams; details: postemergence
Outline: as §1

[23] = test system: SAGPY (Sagittaria pygmaea); assay: Flooded paddy, preemergence weed control; assay type: in vivo, L.; details: rated 3-4 weeks after treatment, 0-9 rating scale
Outline: as §3

`CCN=C1NC(=O)C(OC)(c2nsc3ccc(-n4c(=O)cc(C(F)(F)F)n(C)c4=O)cc23)N1` (stereo not shown) [Compound 98, 3-[3[4-methoxy-2-(ethylimino)-5-oxo-4-imidazolidinyl]-1,2-benzisothiazol-5-yl]-1-methyl-6-(trifluoromethyl)uracil] showed an IPOHE herbicidal rating ([1]; rate 0.0320 kg/ha) of 9.0, an IPOHE herbicidal rating ([1]; rate 0.0620 kg/ha) of 8.0 and a GLXMA herbicidal rating (GLXMA (Soybean) [2]; rate 0.0320 kg/ha) of 8.0. For the same compound, the GLXMA herbicidal rating (GLXMA (Soybean) [2]; rate 0.0620 kg/ha) was 8.0, the ZEAMX herbicidal rating (ZEAMX (Corn, Field) [3]; rate 0.0320 kg/ha) was 3.5 and the ZEAMX herbicidal rating (ZEAMX (Corn, Field) [3]; rate 0.0620 kg/ha) was 3.5. For the same compound, the SETVI herbicidal rating (SETVI (Setaria viridis); rate 0.0320 kg/ha) was 3.0, the SETVI herbicidal rating (SETVI (Setaria viridis); rate 0.0620 kg/ha) was 3.0 and the ECHCG herbicidal rating ([4]; rate 0.0320 kg/ha) was 2.0. The ECHCG herbicidal rating ([4]; rate 0.0620 kg/ha) was 2.0, the CHEAL herbicidal rating ([5]; rate 0.0320 kg/ha) was 6.0 and the CHEAL herbicidal rating ([5]; rate 0.0620 kg/ha) was 8.0. It also gave an AMBEL herbicidal rating ([6]; rate 0.0320 kg/ha) of 8.0, an AMBEL herbicidal rating ([6]; rate 0.0620 kg/ha) of 8.0 and an ABUTH herbicidal rating ([7]; rate 0.0320 kg/ha) of 9.0. It also gave an ABUTH herbicidal rating ([7]; rate 0.0620 kg/ha) of 9.0.
For “5-[5-[3,6-dihydro-3-methyl-2,6-dioxo-4-(trifluoromethyl)-1(2H)-pyrimidinyl]-1,2-benzisothiazol-3-yl]-1,6-hydro-6-oxo-2,3-pyrazinedicarbonitrile [Compound 91]”, the “ORYSAT herbicidal rating (transplanted rice tolerance)” value (ORYSAT (Rice, Tebonnet) [8]) was 0.0, the “Preemergence herbicidal rating IPOHE” value ([9]; rate 0.0620 kg/ha) was 0.0 and the “Preemergence herbicidal rating IPOHE” value ([9]; rate 0.1250 kg/ha) was 0.0. For the same compound, the “Preemergence herbicidal rating IPOHE” value ([9]; rate 0.2500 kg/ha) was 0.0, the “Preemergence herbicidal rating AMBEL” value ([10]; rate 0.0620 kg/ha) was 0.0 and the “Preemergence herbicidal rating AMBEL” value ([10]; rate 0.1250 kg/ha) was 0.0. The “Preemergence herbicidal rating AMBEL” value ([10]; rate 0.2500 kg/ha) was 0.0, the GALAP herbicidal rating (GALAP (Galium aparine) [11]; rate 0.0320 kg/ha) was 3.0 and the GALAP herbicidal rating (GALAP (Galium aparine) [11]; rate 0.0620 kg/ha) was 3.0. For the same compound, the GALAP herbicidal rating (GALAP (Galium aparine) [11]; rate 0.1250 kg/ha) was 3.0, the “Preemergence herbicidal rating ABUTH” value ([12]; rate 0.0620 kg/ha) was 0.0 and the “Preemergence herbicidal rating ABUTH” value ([12]; rate 0.1250 kg/ha) was 0.0. For the same compound, the “Preemergence herbicidal rating ABUTH” value ([12]; rate 0.2500 kg/ha) was 0.0, the “Preemergence herbicidal rating GALAP” value (GALAP (Galium aparine) [13]; rate 0.0620 kg/ha) was 0.0 and the “Preemergence herbicidal rating GALAP” value (GALAP (Galium aparine) [13]; rate 0.1250 kg/ha) was 0.0. The “Preemergence herbicidal rating GALAP” value (GALAP (Galium aparine) [13]; rate 0.2500 kg/ha) was 0.0, the IPOHE herbicidal rating ([1]; rate 0.0320 kg/ha) was 7.0 and the IPOHE herbicidal rating ([1]; rate 0.0620 kg/ha) was 7.0. The IPOHE herbicidal rating ([1]; rate 0.1250 kg/ha) was 8.0, the ECHORC herbicidal rating ([14]; rate 0.0320 kg/ha) was 0.0 and the ECHORC herbicidal rating ([14]; rate 0.1250 kg/ha) was 0.0. The “Preemergence herbicidal rating ECHCG” value ([15]; rate 0.0620 kg/ha) was 0.0, the “Preemergence herbicidal rating ECHCG” value ([15]; rate 0.1250 kg/ha) was 0.0 and the “Preemergence herbicidal rating ECHCG” value ([15]; rate 0.2500 kg/ha) was 0.0. For the same compound, the “Preemergence herbicidal rating ZEAMX” value (ZEAMX (Corn, Field) [16]; rate 0.0620 kg/ha) was 0.0, the “Preemergence herbicidal rating ZEAMX” value (ZEAMX (Corn, Field) [16]; rate 0.1250 kg/ha) was 0.0 and the “Preemergence herbicidal rating ZEAMX” value (ZEAMX (Corn, Field) [16]; rate 0.2500 kg/ha) was 0.0. The ZEAMX herbicidal rating (ZEAMX (Corn, Field) [3]; rate 0.0320 kg/ha) was 1.5, the ZEAMX herbicidal rating (ZEAMX (Corn, Field) [3]; rate 0.0620 kg/ha) was 2.5 and the ZEAMX herbicidal rating (ZEAMX (Corn, Field) [3]; rate 0.1250 kg/ha) was 3.0. The MOOVA herbicidal rating ([17]; rate 0.0320 kg/ha) was 0.0, the MOOVA herbicidal rating ([17]; rate 0.1250 kg/ha) was 0.0 and the “Preemergence herbicidal rating GLXMA” value (GLXMA (Soybean) [18]; rate 0.0620 kg/ha) was 0.0. The “Preemergence herbicidal rating GLXMA” value (GLXMA (Soybean) [18]; rate 0.1250 kg/ha) was 0.0, the “Preemergence herbicidal rating GLXMA” value (GLXMA (Soybean) [18]; rate 0.2500 kg/ha) was 0.0 and the TRZAWR herbicidal rating ([19]; rate 0.0320 kg/ha) was 0.0. It also gave a TRZAWR herbicidal rating ([19]; rate 0.0620 kg/ha) of 0.0, a TRZAWR herbicidal rating ([19]; rate 0.1250 kg/ha) of 0.0 and a CYPIR herbicidal rating (CYPIR (Cyperus iria); rate 0.0320 kg/ha) of 0.0. The CYPIR herbicidal rating (CYPIR (Cyperus iria); rate 0.1250 kg/ha) was 0.0, the ECHCG herbicidal rating ([4]; rate 0.0320 kg/ha) was 0.0 and the ECHCG herbicidal rating ([4]; rate 0.0620 kg/ha) was 0.0. The ECHCG herbicidal rating ([4]; rate 0.1250 kg/ha) was 0.0, the CHEAL herbicidal rating ([5]; rate 0.0320 kg/ha) was 9.0 and the CHEAL herbicidal rating ([5]; rate 0.0620 kg/ha) was 9.0. The CHEAL herbicidal rating ([5]; rate 0.1250 kg/ha) was 9.0, the AMBEL herbicidal rating ([6]; rate 0.0320 kg/ha) was 4.0 and the AMBEL herbicidal rating ([6]; rate 0.0620 kg/ha) was 4.0. For the same compound, the AMBEL herbicidal rating ([6]; rate 0.1250 kg/ha) was 5.0, the CASOB herbicidal rating ([20]; rate 0.0320 kg/ha) was 0.0 and the CASOB herbicidal rating ([20]; rate 0.0620 kg/ha) was 3.0. For the same compound, the CASOB herbicidal rating ([20]; rate 0.1250 kg/ha) was 4.0, the ORYSAT herbicidal rating (ORYSAT (Rice, Tebonnet) [21]; rate 0.0320 kg/ha) was 0.0 and the ORYSAT herbicidal rating (ORYSAT (Rice, Tebonnet) [21]; rate 0.0620 kg/ha) was 0.5. For the same compound, the ORYSAT herbicidal rating (ORYSAT (Rice, Tebonnet) [21]; rate 0.1250 kg/ha) was 1.0, the GLXMAW herbicidal rating ([22]; rate 0.0320 kg/ha) was 6.0 and the GLXMAW herbicidal rating ([22]; rate 0.0620 kg/ha) was 6.0. It also gave a GLXMAW herbicidal rating ([22]; rate 0.1250 kg/ha) of 6.0, an SAGPY herbicidal rating ([23]; rate 0.0320 kg/ha) of 0.0 and an SAGPY herbicidal rating ([23]; rate 0.1250 kg/ha) of 0.0. It also gave an ABUTH herbicidal rating ([7]; rate 0.0320 kg/ha) of 5.0, an ABUTH herbicidal rating ([7]; rate 0.0620 kg/ha) of 7.0 and an ABUTH herbicidal rating ([7]; rate 0.1250 kg/ha) of 9.0.

— patent publication US6706663B2, “Herbicidal 3-heterocyclic substituted benzisothiazole and benzisoxazole compounds” (Wyeth, priority 2000, dated 2004)
